{
  "source": "patent US7220741B2",
  "about": "“1,4-diazabicycloalkane derivatives, their preparation and use” (NeuroSearch A/S, priority 2002, dated 2007)",
  "key": {"[1]": {"biological_target": "T1, α7-subtype of nicotinic receptors (Rattus norvegicus, UniProt Q05941)", "T1 construct": "Cerebral cortices from male Wistar rats (150–250 g) are homogenised; from tissue; host or cells: rat cerebral cortex membrane homogenate (male Wistar rats)", "T1 sequence (Q05941 23-502)": "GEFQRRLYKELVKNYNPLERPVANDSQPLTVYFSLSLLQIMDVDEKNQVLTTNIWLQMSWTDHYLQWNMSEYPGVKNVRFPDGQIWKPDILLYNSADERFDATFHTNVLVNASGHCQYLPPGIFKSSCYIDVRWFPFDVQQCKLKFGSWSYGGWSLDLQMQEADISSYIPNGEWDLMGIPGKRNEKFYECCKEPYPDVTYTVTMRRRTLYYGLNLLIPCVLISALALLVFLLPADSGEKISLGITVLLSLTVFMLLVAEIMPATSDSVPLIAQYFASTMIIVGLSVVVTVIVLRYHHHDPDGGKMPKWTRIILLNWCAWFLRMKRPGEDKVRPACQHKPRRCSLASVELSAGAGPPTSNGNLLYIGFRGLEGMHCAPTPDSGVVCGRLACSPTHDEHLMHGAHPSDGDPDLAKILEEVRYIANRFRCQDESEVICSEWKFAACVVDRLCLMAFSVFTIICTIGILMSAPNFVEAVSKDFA", "experiment": "In vitro inhibition of 3H-α-bungarotoxine binding in rat brain", "settings": "cerebral cortices from male Wistar rats, homogenate; 3H-α-bungarotoxine 2 nM; 2 hours at 37° C."}},
  "note": "Counter-ions that a name gives are not always drawn.",
  "data": [
    {"smiles": "COc1ccc(-c2nnc(N3CCN4CCC3CC4)o2)cc1.O=C(O)/C=C/C(=O)O", "values": [
      {"measurement": "melting point", "result": "190.1 to 191.2", "unit": "°C"}
    ]},
    {"smiles": "O=C(O)/C=C/C(=O)O.c1ccc(-c2ccc(-c3nnc(N4CCN5CCC4CC5)o3)cc2)cc1", "values": [
      {"measurement": "melting point", "result": "238 to 239", "unit": "°C"}
    ]},
    {"smiles": "O=C(O)/C=C/C(=O)O.c1cncc(-c2nnc(N3CCN4CCC3CC4)o2)c1", "values": [
      {"measurement": "melting point", "result": "176.8 to 177.5", "unit": "°C"}
    ]},
    {"smiles": "c1ccc(-c2nnc(N3CCN4CCC3CC4)o2)cc1", "note": "[Compound D1, 4-(5-Phenyl-1,3,4-oxadiazol-2-yl)-1,4-diazabicyclo[3.2.2]nonane fumaric acid salt]", "values": [
      {"measurement": "IC50", "setting": "[1]", "result": 5.8, "unit": "nM"}
    ]},
    {"smiles": "O=C(O)/C=C/C(=O)O.c1ccc2cc(-c3nnc(N4CCN5CCC4CC5)o3)ccc2c1", "values": [
      {"measurement": "melting point", "result": "194.6 to 195.7", "unit": "°C"}
    ]},
    {"smiles": "Clc1ccc(-c2nnc(N3CCN4CCC3CC4)o2)cc1.O=C(O)/C=C/C(=O)O", "values": [
      {"measurement": "melting point", "result": "184.3 to 185.8", "unit": "°C"}
    ]},
    {"smiles": "c1ccc(-c2nnc(N3CCN4CCC3CC4)s2)cc1", "note": "[Compound 1A, 4-(5-Phenyl-1,3,4-thiadiazol-2-yl)-1,4-diazabicyclo[3.2.2]nonane fumaric acid salt]", "values": [
      {"measurement": "IC50", "setting": "[1]", "result": 6.7, "unit": "nM"}
    ]},
    {"smiles": "O=C(O)/C=C/C(=O)O.c1csc(-c2nnc(N3CCN4CCC3CC4)o2)c1", "note": "[Compound D5, 4-[5-(2-Thienyl)-1,3,4-oxadiazol-2-yl]-1,4-diazabicyclo[3.2.2]nonane fumaric acid salt]", "values": [
      {"measurement": "IC50", "setting": "[1]", "result": 22, "unit": "nM"},
      {"measurement": "melting point", "result": "161.8 to 162.7", "unit": "°C"}
    ]},
    {"smiles": "O=C(O)/C=C/C(=O)O.c1coc(-c2nnc(N3CCN4CCC3CC4)o2)c1", "values": [
      {"measurement": "melting point", "result": 175, "unit": "°C"}
    ]},
    {"smiles": "COc1cccc(-c2nnc(N3CCN4CCC3CC4)o2)c1.O=C(O)/C=C/C(=O)O", "values": [
      {"measurement": "melting point", "result": "126 to 164", "unit": "°C"}
    ]},
    {"smiles": "O=C(O)/C=C/C(=O)O.c1cc(-c2nnc(N3CCN4CCC3CC4)o2)ccn1", "values": [
      {"measurement": "melting point", "result": "165.9 to 166.8", "unit": "°C"}
    ]}
  ]
}
